Assays:
[1] = tested on: E. coli; experiment: in vitro antimicrobial activity, incubated with bacteria for 30 min prior to plating for growth; type: cell-based
Experimental: (§1) K180L20 was incubated with bacteria for 30 min prior to plating for growth;

[2] = tested on: P. aeruginosa; experiment: as above; type: cell-based
Experimental: as §1

[3] = tested on: S. aureus; experiment: as above; type: cell-based
Experimental: as §1

[4] = tested on: S. epidermidis; experiment: as above; type: cell-based; settings: FIG. 4
Experimental: as §1

[5] = inflammation by histology in rodent infection model; type: in vivo, rats; settings: rodent open wounds, copolypeptide in solution, versus control treatments
[6] = critical aggregation concentration (CAC) via pyrene fluorescence; type: physicochemical; settings: in water
Experimental: Polypeptide solutions (2 mL) were dispersed in water at a range of concentrations (2.0×10^−3 to 2.0×10^−12 M). A stock pyrene solution was made by dissolving pyrene in acetone (6.0×10^−2 M). Next, an appropriate amount of the pyrene stock solution was added to give a final concentration of 12×10^−7 M in water and the acetone was evaporated off. To each polypeptide solution, 2.0 mL of the aqueous stock pyrene solution was added to afford a final concentration of 6.0×10^−7 M. Then, each solution was allowed to equilibrate overnight prior to measurements. To record fluorescence spectra, 3.0 mL of each polypeptide solution was added to a 4.0 mL polystyrene covet. The excitation spectra were recorded within a range of 300-360 nm at an emission wavelength of 390 nm. All spectra were run with an integration time of 1 sec/0.5 nm. The ratio of the intensities of two peaks I338/I333 was plotted as a function of polypeptide concentration (M) for each sample. The CACs were determined as the intersection of the extrapolated linear fits of the plot.

[7] = pig, in vivo
[8] = pig, in vivo; remark: listed apart in the source
[9] = tested on: S. aureus 6538; experiment: porcine infection prevention open-wound model; settings: solution (10 mg/mL) applied prior to inoculation
Experimental: Full-thickness 1 cm diameter wounds were made in the dorsal and lateral thorax of a 25-35 kg Yorkshire-cross pig. K180L20 hydrogel (or control buffer) was applied, and after four hr, wounds were inoculated with S. aureus. Wounds were assessed after 48 hr for bacterial counts by standard microbiology methods.

[10] = tested on: S. aureus 6538; experiment: rodent model of prevention of wound infection (subcutaneous polypropylene mesh); settings: solution
Experimental: (§2) In this model, a mesh pre-soaked with phosphate buffered saline (PBS) or K180L20 was inserted subcutaneously into the dorsal cervical region of Sprague-Dawley rats, followed by 10^6 S. aureus or P. aeruginosa. Additional PBS or K180L20 was added, wounds closed, and animals returned to cages for 48 hr.

[11] = tested on: P. aeruginosa (Clinical Pig Isolate); experiment: as above; settings: solution
Experimental: as §2

[12] = tested on: microbes; experiment: in vitro antimicrobial activity, organism not given; type: cell-based; settings: neutral pH (~7)

## Poly(L-Lysine.HCl)55-b-poly(rac-Leucine)20 [K55(rac-L)20]
[1]; 10 μg/ml
  reduction of bacteria, E. coli: reduction of bacteria
[1]; FIG. 4
  antimicrobial activity against E. coli: substantial antimicrobial activity
[2]; 10 μg/ml
  reduction of bacteria, P. aeruginosa: reduction of bacteria
[2]; FIG. 4
  antimicrobial activity against P. aeruginosa: substantial antimicrobial activity
[3]; 10 μg/ml
  reduction of bacteria, S. aureus: reduction of bacteria
[3]; FIG. 4
  antimicrobial activity against S. aureus: substantial antimicrobial activity
[4]
  antimicrobial activity against S. epidermidis: substantial antimicrobial activity
[5]
  inflammation, histopathological evidence: at or below the level of control treatments
[6]
  critical aggregation concentration (CAC): 8.1 µM
[7]
  mononuclear inflammation, edema, or hemorrhage versus controls: No differences
  neutrophilic inflammation, severity versus controls: minimally less severe
  serocellular exudates, severity versus controls: mildly
[8]
  inflammation, necrosis, and epithelial coverage versus control-treated wounds: similar
[9]
  prevention of microbial infection, S. aureus: fully prevented microbial infection
[10]; 20 μg/ml of copolypeptide
  reduction in bacterial population, S. aureus: 1-3 log
[10]; 2 mg/ml
  reduction in bacterial population, S. aureus: complete (or near complete) reduction
[11]; 20 μg/ml of copolypeptide
  reduction in bacterial population, P. aeruginosa: 1-3 log
[11]; 2 mg/ml
  reduction in bacterial population, P. aeruginosa: complete (or near complete) reduction

## Poly(L-glutamate-Na)54-b-poly(rac-leucine)20 [E54(rac-L)20]
[12]
  antimicrobial activity at neutral pH: low antimicrobial activity

From patent US9017730B2 (The Regents of the University of California, priority 2010, dated 2015)
